According to PMC8507746, “The FHP01 DDX3X Helicase Inhibitor Exerts Potent Anti-Tumor Activity In Vivo in Breast Cancer Pre-Clinical Models” (Cancers, 2021):
Several values for one entry are separate records, joined by “and”; a condition that tells them apart may be missing. Equal values may be shown once.

Columns and labels:
[1] = system: WNT signaling (TCF/LEF transcriptional activity); experiment: TCF/LEF luciferase reporter assay (WNT1/WNT3A) in MDA MB 231 cells; type: cell-based, human; conditions: MDA MB 231, 6 μM, 48 h
Description: MDA MB 231 cells were seeded at 3 × 10^4 cells/well density in 12-well plates, in triplicate, and transfected with 250 ng of the M50 Super 8× TOPFlash reporter vector (Addgene Plasmid #12456) and 1 μg of expression vectors inducing the WNT pathway (Wnt1-V5, Addgene plasmid #43807, and Wnt3A-V5, Addgene plasmid #43810). Eight hours after transfection, cells were treated with FHP01, XAV939 (Merck, Kenilworth, NJ, USA) or DMSO for indicated times prior to lysis in Passive Lysis Buffer (Promega, Madison, WI, USA). Luciferase activity in cellular lysates was assessed on a Glomax 20/20 luminometer (Promega) using the Luciferase Assay System (Promega). Results were normalized for GFP expression, upon transfection with GFP coding vector (1 μg). Representative results from 3 independent experiments are shown (n = 3). Error bars represent the Standard Error of the Mean. All samples were read at least in triplicate.

[2] = system: DDX3X and β-catenin in MDA MB 231 tumors; experiment: Western blot of DDX3X and β-catenin in tumors from treated mice; type: in vivo, athymic nude mice; conditions: 45 mg/kg i.p. three times per week for 4 weeks, individual tumors
Description: (§1) Cells (1 × 10^5) were seeded in 6-well plates. After 24 h, cells were treated for indicated times with DMSO (vehicle) or FHP01 or XAV939 (Merck). After treatments, cells were washed with cold PBS and total protein extracts obtained by adding 80 µL of “RIPA Lysis buffer” (50 mM Tris-HCl pH 8.0, 150 mM NaCl, 0.5% Sodium deoxycholate, 0.1% SDS, 1% NP-40, 2 mM Orthovanadate, 2mM Sodium fluoride, 1mM Dithiothreitol and 1× protease inhibitors). After mechanicals detachment with cell scrapers, total lysates were collected in tubes, vortexed, and incubated for 15 min on ice. Tumors from mice were collected and disrupted by bead homogenization in Lysing Matrix D tubes using a FastPrep-24 5G homogenizer (MP Biomedicals, Solon, OH, USA) filled with “RIPA Lysis buffer” w:v. Next, samples were centrifuged for 10 min at 16,000× g, and supernatants were collected, representing total cell lysates.
(§2) Densitometric analysis of western blots was performed with NIH Image J (National Institutes of Health).

[3] = Tolerability in xenograft study: body weight and organ histology; type: in vivo, athymic nude mice
Description: Animal experiments were performed in accordance with current Italian legislation and the animal protocol has been reviewed and approved by Italian Ministero della Salute (authorization n. 886/2020-PR). The study was designed to verify the effect of newly synthetized molecule with DDX3X inhibitor activity administered via i.p at a concentration of 45 mg/kg on the tumor growth of xenograft MDA MB 231 human breast cancer cells. In the study, n refers to the number of tumors expressed on both flanks of the animals. The sample size was calculated by g-power calculator placing a predictable large (2-fold increase) effect size, alpha as 0.05, and a confidence interval of 95% and we set our experimental unit number of 10 (corresponding to 5 animals). Total number of animals used in the study was 10. Six-week-old athymic nude mice were purchased from Charles River Laboratories. Five animals in each cage acclimatized in our animal facilities for 5 days in individually ventilated cages. Animals were fed with the lab diet ad libitum and water was accessible at all times and kept under standard specific pathogen-free conditions of 12 h light/dark cycle. Observational analysis was performed at the beginning of experimental procedure to ensure animal wellbeing (Table S1). […]

PBMCs = experiment: Cell viability assay in peripheral blood mononuclear cells; type: cell-based; conditions: up to a concentration of 50 μM, 72 h
Description: Two days before the assay, phytohemagglutinin-A (PHA) 2 µg/mL was added to the PBMC culture. Cells were seeded at 13 × 10^4 cells/well in triplicate and maintained at 37 °C in 5% CO2. After 24 h, cells were treated with 10 μM and 50 μM of indicated drugs. After 72 h incubation, cells were washed in PBS and harvested. Cell number of each sample was determined with Z2 Coulter Counter (Beckman Coulter), in triplicate. Data about cell viability were plotted in GraphPad Prism 8.0 software 100% viability corresponding to vehicle (DMSO) treated PBMCs.

[4] = system: MDA MB 231 tumor xenografts; experiment: MDA MB 231 tumor xenograft growth in athymic nude mice; type: in vivo; conditions: for mean tumor volume: 45 mg/kg i.p. 3 times a week
Description: Animal experiments were performed in accordance with current Italian legislation and the animal protocol has been reviewed and approved by Italian Ministero della Salute (authorization n. 886/2020-PR). The study was designed to verify the effect of newly synthetized molecule with DDX3X inhibitor activity administered via i.p at a concentration of 45 mg/kg on the tumor growth of xenograft MDA MB 231 human breast cancer cells. In the study, n refers to the number of tumors expressed on both flanks of the animals. The sample size was calculated by g-power calculator placing a predictable large (2-fold increase) effect size, alpha as 0.05, and a confidence interval of 95% and we set our experimental unit number of 10 (corresponding to 5 animals). Total number of animals used in the study was 10. Six-week-old athymic nude mice were purchased from Charles River Laboratories. Five animals in each cage acclimatized in our animal facilities for 5 days in individually ventilated cages. Animals were fed with the lab diet ad libitum and water was accessible at all times and kept under standard specific pathogen-free conditions of 12 h light/dark cycle. Observational analysis was performed at the beginning of experimental procedure to ensure animal wellbeing (Table S1).
To establish xenograft tumors, MDA MB 231 cells were cultured in media as described above. On the day of experiment, cells (2.8 × 10^6) were suspended in 150 μL PBS 1:1 Matrigel and injected subcutaneously on both size of the flank region of nude mice. In order to determine tumor volume by manual caliper, the greatest longitudinal diameter (length) and the greatest transverse diameter (width) were determined. Tumor volumes based on caliper measurements were calculated by the modified ellipsoidal formula Tumor volume = 1/2(length × width^2).
Group allocation and treatments: once tumors reached a mean size of 24.82 ± 2.56 mm^3, animals were allocated in two groups by minimization strategy according to tumor size: the treatment group received 100 μL of a 45 mg/kg FHP01 suspended in a vehicle consisting of 10% DMSO, 5% Tween 80, 85% H2O via i.p. injection three times per week for 4 weeks; the control group included animals treated with 100 μL of vehicle (10% DMSO, 5% Tween 80, 85% H2O). One control animal reached HEP and was sacrificed and was not account for in the analysis. […]
For the final statistics, the number of tumors analyzed was 8 in the control group (one animal died for unknown reasons as certified by the AWB designed veterinary) and 9 for the treated group (the volume of one tumor was considered outlier). Results were reported as tumor volume increase, normalizing the value of each measurement to the baseline value of each sample and expressed as mean ± SEM. […]

β-catenin = experiment: Western blot of β-catenin protein levels in MDA MB 231 cells; type: cell-based, human; conditions: MDA MB 231, 6 μM, 48 to 72 h
Description: as §1, §2

With `CCCCc1cn(-c2ccc(NC(=O)Nc3ccccc3C(F)(F)F)cc2)nn1` [FHP01] the “WNT1- and WNT3A-dependent TCF/LEF transcriptional activity” value [1] was “strong inhibition”, the “DDX3X : ERK2 in tumors” value ([2]; Ctrl 0.64, 1.00, 0.60) was 0.01 (2×) and 0.13 and the “β-Catenin : ERK2 in tumors” value ([2]; Ctrl 0.64, 1.00, 0.89) was 0.64 and 0.79 and 0.70. For the same compound, the animal body weight ([3]; 45 mg/kg i.p. 3 times a week, all the treatment period) was “No loss of animal body weight”, the “histology of liver, brain, spleen and kidney” value ([3]; after 4 weeks of i.p. treatment, 45 mg/kg) was “did not show any sign of toxicity” and the “effect on viability of normal PBMC” value (PBMCs) was “no effect”. For the same compound, the mean tumor volume ([4]; Day 0 of the treatment) was 25.49± 4.58 mm^3, the mean tumor volume ([4]; Day 18, control 73.40 ± 9.72) was 24.18 ± 4.44 mm^3 and the mean tumor volume ([4]; Day 28, control 129.85 ± 21.39) was 37.23 ± 11.45 mm^3. For the same compound, the “effect size, decrease in tumor growth (control/treated)” value ([4]; end of the procedure, 45 mg/kg i.p.) was “about 4 fold” and the β-catenin protein levels (β-catenin) was “time-dependent reduction”.
